Converted amounts (≈) assume the structure as drawn. Blank lines part the entries; values can stand above or below the compound they belong to.
Columns and labels:
[1] = Aqueous solubility of the compound at pH 7.4; format: physicochemical; conditions: buffer
[2] = Plasma concentration in human NCI-H1975 cell xenografted mouse at 25 mg/kg, iv after 6 hrs; format: ADME, organism-based; parameters: dose 25 mg/kg, route intravenous
[3] = Plasma concentration in human NCI-H1975 cell xenografted mouse at 25 mg/kg, iv after 24 hrs; format: ADME, organism-based; parameters: dose 25 mg/kg, route intravenous
[4] = Drug level in tumor in human NCI-H1975 cell xenografted mouse at 25 mg/kg, iv after 6 hrs; format: ADME, organism-based, Neoplasm; parameters: dose 25 mg/kg, route intravenous; conditions: read-out: Drug uptake
[5] = Drug level in tumor in human NCI-H1975 cell xenografted mouse at 25 mg/kg, iv after 24 hrs; format: ADME, organism-based, Neoplasm; parameters: dose 25 mg/kg, route intravenous; conditions: read-out: Drug uptake
[6] = Plasma concentration in human U87MG cells xenografted mouse at 50 mg/kg, iv after 6 hrs; format: ADME, organism-based, U-87MG ATCC; parameters: dose 50 mg/kg, route intravenous
[7] = Plasma concentration in human U87MG cells xenografted mouse at 50 mg/kg, iv after 24 hrs; format: ADME, organism-based, U-87MG ATCC; parameters: dose 50 mg/kg, route intravenous
[8] = Drug level in tumor in human U87MG cells xenografted mouse at 50 mg/kg, iv after 6 hrs; format: ADME, organism-based, Neoplasm, U-87MG ATCC; parameters: dose 50 mg/kg, route intravenous; conditions: read-out: Drug uptake
[9] = Drug level in tumor in human U87MG cells xenografted mouse at 50 mg/kg, iv after 24 hrs; format: ADME, organism-based, Neoplasm, U-87MG ATCC; parameters: dose 50 mg/kg, route intravenous; conditions: read-out: Drug uptake
[10] = Plasma concentration in human U87MG cells xenografted mouse at 50 mg/kg, po after 6 hrs; format: ADME, organism-based, U-87MG ATCC; parameters: dose 50 mg/kg, route oral
[11] = Plasma concentration in human U87MG cells xenografted mouse at 50 mg/kg, po after 24 hrs; format: ADME, organism-based, U-87MG ATCC; parameters: dose 50 mg/kg, route oral
[12] = Drug level in tumor in human U87MG cells xenografted mouse at 50 mg/kg, po after 6 hrs; format: ADME, organism-based, Neoplasm, U-87MG ATCC; parameters: dose 50 mg/kg, route oral; conditions: read-out: Drug uptake
[13] = Drug level in tumor in human U87MG cells xenografted mouse at 50 mg/kg, po after 24 hrs; format: ADME, organism-based, Neoplasm, U-87MG ATCC; parameters: dose 50 mg/kg, route oral; conditions: read-out: Drug uptake
[14] = AUC (0 to infinity) in CD1 mouse at 2 mg/kg, iv; format: ADME, organism-based; parameters: time infinity, dose 2 mg/kg, route intravenous; conditions: plasma
[15] = Volume of distribution at steady state in CD1 mouse at 2 mg/kg, iv; format: ADME, organism-based; parameters: dose 2 mg/kg, route intravenous; conditions: in vivo, read-out: Vdss
[16] = Bioavailability in CD1 mouse at 2 mg/kg, iv; format: ADME, organism-based; conditions: in vivo
[17] = AUC (0 to infinity) in CD1 mouse at 20 mg/kg, po; format: ADME, organism-based; parameters: time infinity, dose 20 mg/kg, route oral; conditions: plasma
[18] = Cmax in CD1 mouse at 20 mg/kg, po; format: ADME, organism-based; parameters: dose 20 mg/kg, route oral; conditions: in vivo
[19] = Tmax in CD1 mouse at 20 mg/kg, po; format: ADME, organism-based; parameters: dose 20 mg/kg, route oral; conditions: in vivo

solubility ([1]; read-out: solubility): 38 µg/mL (≈ 81.8 µM)
SMILES: CC(=O)N1CCc2c(C)c3c(n2-c2ccc(C(N)=O)c(c2)N[C@@H](C)[C@H](C)C1)CC(C)(C)CC3=O

solubility ([1]; read-out: solubility): 46 µg/mL (≈ 95.9 µM)
SMILES: Cc1c2c(n3c1CCN(C(=O)CN)C[C@@H](C)[C@H](C)Nc1cc-3ccc1C(N)=O)CC(C)(C)CC2=O

solubility ([1]; read-out: solubility): 10 µg/mL (≈ 20.3 µM)
concentration at 6 h [2]: 36 ng/mL
concentration at 24 h [3]: 9 ng/mL
concentration at 6 h [4]: 693 ng/g
concentration at 24 h [5]: 910 ng/g
concentration at 6 h [6]: 102 ng/mL
concentration at 24 h [7]: 45 ng/mL
concentration at 6 h [8]: 967 ng/g
concentration at 24 h [9]: 772 ng/g
concentration at 6 h [10]: 53 ng/mL
concentration at 24 h [11]: 6 ng/mL
concentration at 6 h [12]: 309 ng/g
concentration at 24 h [13]: 242 ng/g
AUC(0-inf) [14]: 542 ng·h/mL
Vd [15]: 30 L/kg
bioavailability [16]: 4%
AUC(0-inf) [17]: 234 ng·h/mL
Cmax [18]: 22 ng/mL
Tmax [19]: 1 h
SMILES: Cc1c2c(n3c1CCN(C(=O)[C@H](C)N)C[C@@H](C)[C@H](C)Nc1cc-3ccc1C(N)=O)CC(C)(C)CC2=O

solubility ([1]; read-out: solubility): > 100 µg/mL
SMILES: CC[C@H](N)C(=O)N1CCc2c(C)c3c(n2-c2ccc(C(N)=O)c(c2)N[C@@H](C)[C@H](C)C1)CC(C)(C)CC3=O

solubility ([1]; read-out: solubility): > 100 µg/mL
SMILES: Cc1c2c(n3c1CCN(C(=O)C(C)(C)N)C[C@@H](C)[C@H](C)Nc1cc-3ccc1C(N)=O)CC(C)(C)CC2=O

solubility ([1]; read-out: solubility): 7 µg/mL (≈ 13.8 µM)
SMILES: Cc1c2c(n3c1CCN(C(=O)C1(N)CC1)C[C@@H](C)[C@H](C)Nc1cc-3ccc1C(N)=O)CC(C)(C)CC2=O

The remaining lines, values behind:

SMILES: Cc1c2c(n3c1CCCNC[C@H](C)Nc1cc-3ccc1C(N)=O)CC(C)(C)CC2=O
solubility ([1]; read-out: solubility): > 100 µg/mL

SMILES: Cc1c2c(n3c1CCN(C(=O)[C@H](C)N)CC[C@H](C)Nc1cc-3ccc1C(N)=O)CC(C)(C)CC2=O
solubility ([1]; read-out: solubility): > 100 µg/mL

SMILES: Cc1c2c(n3c1CCCN1CCC[C@H]1CNc1cc-3ccc1C(N)=O)CC(C)(C)CC2=O
solubility [1]: 2324 µg/mL (≈ 5350 µM)

SMILES: Cc1c2c(n3c1CCN(C(=O)[C@@H]1C[C@H](F)CN1)C[C@@H](C)[C@H](C)Nc1cc-3ccc1C(N)=O)CC(C)(C)CC2=O
solubility ([1]; read-out: solubility): 100 µg/mL (≈ 186 µM)

SMILES: Cc1c2c(n3c1CCN(C(=O)[C@@H](N)C(C)C)C[C@@H](C)[C@H](C)Nc1cc-3ccc1C(N)=O)CC(C)(C)CC2=O
solubility ([1]; read-out: solubility): > 100 µg/mL

SMILES: Cc1c2c(n3c1CCN(C(=O)C1(N)CCCC1)C[C@@H](C)[C@H](C)Nc1cc-3ccc1C(N)=O)CC(C)(C)CC2=O
solubility ([1]; read-out: solubility): 53 µg/mL (≈ 99.3 µM)

SMILES: Cc1c2c(n3c1CCN(C(=O)[C@@H]1CCCN1)C[C@@H](C)[C@H](C)Nc1cc-3ccc1C(N)=O)CC(C)(C)CC2=O
solubility ([1]; read-out: solubility): > 100 µg/mL

SMILES: Cc1c2c(n3c1CCN(C(=O)[C@H]1CCCN1)C[C@@H](C)[C@H](C)Nc1cc-3ccc1C(N)=O)CC(C)(C)CC2=O
solubility ([1]; read-out: solubility): > 100 µg/mL

SMILES: Cc1c2c(n3c1CCN(C(=O)[C@H](C)O)C[C@@H](C)[C@H](C)Nc1cc-3ccc1C(N)=O)CC(C)(C)CC2=O
solubility ([1]; read-out: solubility): 60 µg/mL (≈ 121 µM)

SMILES: Cc1c2c(n3c1CCN(C(=O)[C@@H](O)C(C)C)C[C@@H](C)[C@H](C)Nc1cc-3ccc1C(N)=O)CC(C)(C)CC2=O
solubility ([1]; read-out: solubility): 30 µg/mL (≈ 57.4 µM)

Reference: ChEMBL document CHEMBL1806368 (Bioorg Med Chem Lett, 2011)
